Data set [1] is described as follows: Rate of hydrolysis of nitrocefin by compound was evaluated in water. In kind it is ADME. The settings on record: buffer.
A short description of data set [2]: Dissociation constant was evaluated. In kind it is physicochemical.

The results in this text go back to ChEMBL document CHEMBL1133196, “A model for ZnII-containing-beta-lactamase: synthesis, X-ray crystal structure of a zinc(II) complex bearing thiol group and hydrolysis of phosphate diester” (Bioorg Med Chem Lett, 2000).

SMILES strings stand for the structures.

Compound `[Cl-].[S-]CCN(Cc1ccccn1)Cc1ccccn1.[Zn+2]` yielded an Activity in data set [1] of 6.5e-09 M⁻¹ s⁻¹. This compound registered a pKa in data set [2] of 9.
In the case of `Cl.Cl.[Zn+2].c1ccc(CNCc2ccccn2)nc1`, the Activity in data set [1] was found to be 2.52e-08 M⁻¹ s⁻¹. The compound also yielded a pKa in data set [2] of 9.4.
